Measurements published in ChEMBL document CHEMBL1933046, “Synthesis and antibacterial activity of a novel series of acylides active against community acquired respiratory pathogens” (2012).
Values after ≈ are worked out from the molar mass of the structure shown.

The molecules below were run on Streptococcus pneumoniae (assay: Antibacterial activity against Streptococcus pneumoniae by NCCLS method).
Format: functional

Structure (SMILES) | MIC [µg/mL]
CC[C@H]1OC(=O)[C@H](C)[C@@H](OC(=O)Cc2cccnc2)[C@H](C)[C@@H](O[C@@H]2O[C@H](C)C[C@H](N(C)Cc3ccccc3)[C@H]2O)[C@](C)(OC)C[C@@H](C)C(=O)[C@H](C)[C@@H](O)[C@]1(C)O | 0.25 (≈ 0.318 µM)
CC[C@H]1OC(=O)[C@H](C)[C@@H](OC(=O)Cc2ccc(F)cc2)[C@H](C)[C@@H](O[C@@H]2O[C@H](C)C[C@H](N(C)CC)[C@H]2O)[C@](C)(OC)C[C@@H](C)C(=O)[C@H](C)[C@@H](O)[C@]1(C)O | 0.5 (≈ 0.676 µM)
CC[C@H]1OC(=O)[C@H](C)[C@@H](OC(=O)Cc2ccc([N+](=O)[O-])cc2)[C@H](C)[C@@H](O[C@@H]2O[C@H](C)C[C@H](N(C)CC)[C@H]2O)[C@](C)(OC)C[C@@H](C)C(=O)[C@H](C)[C@@H](O)[C@]1(C)O | 0.5 (≈ 0.652 µM)
CC[C@H]1OC(=O)[C@H](C)[C@@H](OC(=O)Cc2cccc(F)c2)[C@H](C)[C@@H](O[C@@H]2O[C@H](C)C[C@H](N(C)Cc3ccc(F)cc3)[C@H]2O)[C@](C)(OC)C[C@@H](C)C(=O)[C@H](C)[C@@H](O)[C@]1(C)O | 2 (≈ 2.44 µM)
CC[C@H]1OC(=O)[C@H](C)[C@@H](OC(=O)Cc2cccc([N+](=O)[O-])c2)[C@H](C)[C@@H](O[C@@H]2O[C@H](C)C[C@H](N(C)C3CC3)[C@H]2O)[C@](C)(OC)C[C@@H](C)C(=O)[C@H](C)[C@@H](O)[C@]1(C)O | 16 (≈ 20.5 µM)
CC[C@H]1OC(=O)[C@H](C)[C@@H](OC(=O)Cc2ccncc2)[C@H](C)[C@@H](O[C@@H]2O[C@H](C)C[C@H](N(C)CC3CC3)[C@H]2O)[C@](C)(OC)C[C@@H](C)C(=O)[C@H](C)[C@@H](O)[C@]1(C)O | 32 (≈ 42.7 µM)
CC[C@H]1OC(=O)[C@H](C)[C@@H](OC(=O)Cc2cccc([N+](=O)[O-])c2)[C@H](C)[C@@H](O[C@@H]2O[C@H](C)C[C@H](N(C)CC)[C@H]2O)[C@](C)(OC)C[C@@H](C)C(=O)[C@H](C)[C@@H](O)[C@]1(C)O | 0.25 (≈ 0.326 µM)
CC[C@H]1OC(=O)[C@H](C)[C@@H](OC(=O)Cc2ccccc2F)[C@H](C)[C@@H](O[C@@H]2O[C@H](C)C[C@H](N(C)CC)[C@H]2O)[C@](C)(OC)C[C@@H](C)C(=O)[C@H](C)[C@@H](O)[C@]1(C)O | 0.25 (≈ 0.338 µM)
C=CCN(C)[C@H]1C[C@@H](C)O[C@@H](O[C@@H]2[C@@H](C)[C@H](OC(=O)Cc3ccc(F)cc3)[C@@H](C)C(=O)O[C@H](CC)[C@@](C)(O)[C@H](O)[C@@H](C)C(=O)[C@H](C)C[C@@]2(C)OC)[C@@H]1O | 0.5 (≈ 0.665 µM)
CC[C@H]1OC(=O)[C@H](C)[C@@H](OC(=O)Cc2ccc(F)cc2)[C@H](C)[C@@H](O[C@@H]2O[C@H](C)C[C@H](N(C)C3CC3)[C@H]2O)[C@](C)(OC)C[C@@H](C)C(=O)[C@H](C)[C@@H](O)[C@]1(C)O | 32 (≈ 42.6 µM)
CC[C@H]1OC(=O)[C@H](C)[C@@H](OC(=O)Cc2cccc(F)c2)[C@H](C)[C@@H](O[C@@H]2O[C@H](C)C[C@H](N(C)Cc3ccccc3)[C@H]2O)[C@](C)(OC)C[C@@H](C)C(=O)[C@H](C)[C@@H](O)[C@]1(C)O | 1 (≈ 1.25 µM)
CC[C@H]1OC(=O)[C@H](C)[C@@H](OC(=O)Cc2cccc(F)c2)[C@H](C)[C@@H](O[C@@H]2O[C@H](C)C[C@H](N(C)CC3CC3)[C@H]2O)[C@](C)(OC)C[C@@H](C)C(=O)[C@H](C)[C@@H](O)[C@]1(C)O | 8 (≈ 10.4 µM)
C=CCN(C)[C@H]1C[C@@H](C)O[C@@H](O[C@@H]2[C@@H](C)[C@H](OC(=O)Cc3cccc(F)c3)[C@@H](C)C(=O)O[C@H](CC)[C@@](C)(O)[C@H](O)[C@@H](C)C(=O)[C@H](C)C[C@@]2(C)OC)[C@@H]1O | 0.125 (≈ 0.166 µM)
C#CCN(C)[C@H]1C[C@@H](C)O[C@@H](O[C@@H]2[C@@H](C)[C@H](OC(=O)Cc3cccnc3)[C@@H](C)C(=O)O[C@H](CC)[C@@](C)(O)[C@H](O)[C@@H](C)C(=O)[C@H](C)C[C@@]2(C)OC)[C@@H]1O | 2 (≈ 2.73 µM)
C#CCN(C)[C@H]1C[C@@H](C)O[C@@H](O[C@@H]2[C@@H](C)[C@H](OC(=O)Cc3cccc([N+](=O)[O-])c3)[C@@H](C)C(=O)O[C@H](CC)[C@@](C)(O)[C@H](O)[C@@H](C)C(=O)[C@H](C)C[C@@]2(C)OC)[C@@H]1O | 1 (≈ 1.29 µM)
C=CCN(C)[C@H]1C[C@@H](C)O[C@@H](O[C@@H]2[C@@H](C)[C@H](OC(=O)Cc3ccccc3F)[C@@H](C)C(=O)O[C@H](CC)[C@@](C)(O)[C@H](O)[C@@H](C)C(=O)[C@H](C)C[C@@]2(C)OC)[C@@H]1O | 0.25 (≈ 0.332 µM)
CC[C@H]1OC(=O)[C@H](C)[C@@H](OC(=O)Cc2ccc([N+](=O)[O-])cc2)[C@H](C)[C@@H](O[C@@H]2O[C@H](C)C[C@H](N(C)C3CC3)[C@H]2O)[C@](C)(OC)C[C@@H](C)C(=O)[C@H](C)[C@@H](O)[C@]1(C)O | > 32
C#CCN(C)[C@H]1C[C@@H](C)O[C@@H](O[C@@H]2[C@@H](C)[C@H](OC(=O)Cc3ccccc3[N+](=O)[O-])[C@@H](C)C(=O)O[C@H](CC)[C@@](C)(O)[C@H](O)[C@@H](C)C(=O)[C@H](C)C[C@@]2(C)OC)[C@@H]1O | 2 (≈ 2.57 µM)
CC[C@H]1OC(=O)[C@H](C)[C@@H](OC(=O)Cc2ccc(F)cc2)[C@H](C)[C@@H](O[C@@H]2O[C@H](C)C[C@H](N(C)Cc3ccccc3)[C@H]2O)[C@](C)(OC)C[C@@H](C)C(=O)[C@H](C)[C@@H](O)[C@]1(C)O | 1 (≈ 1.25 µM)
C#CCN(C)[C@H]1C[C@@H](C)O[C@@H](O[C@@H]2[C@@H](C)[C@H](OC(=O)Cc3ccccn3)[C@@H](C)C(=O)O[C@H](CC)[C@@](C)(O)[C@H](O)[C@@H](C)C(=O)[C@H](C)C[C@@]2(C)OC)[C@@H]1O | 4 (≈ 5.46 µM)
CC[C@H]1OC(=O)[C@H](C)[C@@H](OC(=O)Cc2ccccc2[N+](=O)[O-])[C@H](C)[C@@H](O[C@@H]2O[C@H](C)C[C@H](N(C)CC3CC3)[C@H]2O)[C@](C)(OC)C[C@@H](C)C(=O)[C@H](C)[C@@H](O)[C@]1(C)O | 1 (≈ 1.26 µM)
CC[C@H]1OC(=O)[C@H](C)[C@@H](OC(=O)Cc2cccc(F)c2)[C@H](C)[C@@H](O[C@@H]2O[C@H](C)C[C@H](N(C)C3CC3)[C@H]2O)[C@](C)(OC)C[C@@H](C)C(=O)[C@H](C)[C@@H](O)[C@]1(C)O | > 16
CC[C@H]1OC(=O)[C@H](C)[C@@H](OC(=O)Cc2cccnc2)[C@H](C)[C@@H](O[C@@H]2O[C@H](C)C[C@H](N(C)CC)[C@H]2O)[C@](C)(OC)C[C@@H](C)C(=O)[C@H](C)[C@@H](O)[C@]1(C)O | 0.5 (≈ 0.692 µM)
C=CCN(C)[C@H]1C[C@@H](C)O[C@@H](O[C@@H]2[C@@H](C)[C@H](OC(=O)Cc3ccccn3)[C@@H](C)C(=O)O[C@H](CC)[C@@](C)(O)[C@H](O)[C@@H](C)C(=O)[C@H](C)C[C@@]2(C)OC)[C@@H]1O | 0.25 (≈ 0.34 µM)
CC[C@H]1OC(=O)[C@H](C)[C@@H](OC(=O)Cc2ccccc2F)[C@H](C)[C@@H](O[C@@H]2O[C@H](C)C[C@H](N(C)CC3CC3)[C@H]2O)[C@](C)(OC)C[C@@H](C)C(=O)[C@H](C)[C@@H](O)[C@]1(C)O | 8 (≈ 10.4 µM)
CC[C@H]1OC(=O)[C@H](C)[C@@H](OC(=O)Cc2ccccn2)[C@H](C)[C@@H](O[C@@H]2O[C@H](C)C[C@H](N(C)CC3CC3)[C@H]2O)[C@](C)(OC)C[C@@H](C)C(=O)[C@H](C)[C@@H](O)[C@]1(C)O | > 16

Next, values leading:

MIC [µg/mL] | Structure (SMILES)
> 32 | CC[C@H]1OC(=O)[C@H](C)[C@@H](OC(=O)Cc2ccncc2)[C@H](C)[C@@H](O[C@@H]2O[C@H](C)C[C@H](N(C)C3CC3)[C@H]2O)[C@](C)(OC)C[C@@H](C)C(=O)[C@H](C)[C@@H](O)[C@]1(C)O
0.125 (≈ 0.169 µM) | CC[C@H]1OC(=O)[C@H](C)[C@@H](OC(=O)Cc2cccc(F)c2)[C@H](C)[C@@H](O[C@@H]2O[C@H](C)C[C@H](N(C)CC)[C@H]2O)[C@](C)(OC)C[C@@H](C)C(=O)[C@H](C)[C@@H](O)[C@]1(C)O
0.25 (≈ 0.321 µM) | C=CCN(C)[C@H]1C[C@@H](C)O[C@@H](O[C@@H]2[C@@H](C)[C@H](OC(=O)Cc3ccccc3[N+](=O)[O-])[C@@H](C)C(=O)O[C@H](CC)[C@@](C)(O)[C@H](O)[C@@H](C)C(=O)[C@H](C)C[C@@]2(C)OC)[C@@H]1O
0.25 (≈ 0.346 µM) | CC[C@H]1OC(=O)[C@H](C)[C@@H](OC(=O)Cc2ccccn2)[C@H](C)[C@@H](O[C@@H]2O[C@H](C)C[C@H](N(C)CC)[C@H]2O)[C@](C)(OC)C[C@@H](C)C(=O)[C@H](C)[C@@H](O)[C@]1(C)O
2 (≈ 2.67 µM) | C#CCN(C)[C@H]1C[C@@H](C)O[C@@H](O[C@@H]2[C@@H](C)[C@H](OC(=O)Cc3cccc(F)c3)[C@@H](C)C(=O)O[C@H](CC)[C@@](C)(O)[C@H](O)[C@@H](C)C(=O)[C@H](C)C[C@@]2(C)OC)[C@@H]1O
1 (≈ 1.26 µM) | CC[C@H]1OC(=O)[C@H](C)[C@@H](OC(=O)Cc2ccc([N+](=O)[O-])cc2)[C@H](C)[C@@H](O[C@@H]2O[C@H](C)C[C@H](N(C)CC3CC3)[C@H]2O)[C@](C)(OC)C[C@@H](C)C(=O)[C@H](C)[C@@H](O)[C@]1(C)O
0.5 (≈ 0.667 µM) | C#CCN(C)[C@H]1C[C@@H](C)O[C@@H](O[C@@H]2[C@@H](C)[C@H](OC(=O)Cc3ccccc3F)[C@@H](C)C(=O)O[C@H](CC)[C@@](C)(O)[C@H](O)[C@@H](C)C(=O)[C@H](C)C[C@@]2(C)OC)[C@@H]1O
0.06 (≈ 0.077 µM) | C=CCN(C)[C@H]1C[C@@H](C)O[C@@H](O[C@@H]2[C@@H](C)[C@H](OC(=O)Cc3cccc([N+](=O)[O-])c3)[C@@H](C)C(=O)O[C@H](CC)[C@@](C)(O)[C@H](O)[C@@H](C)C(=O)[C@H](C)C[C@@]2(C)OC)[C@@H]1O
> 32 | CC[C@H]1OC(=O)[C@H](C)[C@@H](OC(=O)Cc2ccccn2)[C@H](C)[C@@H](O[C@@H]2O[C@H](C)C[C@H](N(C)C3CC3)[C@H]2O)[C@](C)(OC)C[C@@H](C)C(=O)[C@H](C)[C@@H](O)[C@]1(C)O
0.5 (≈ 0.623 µM) | CC[C@H]1OC(=O)[C@H](C)[C@@H](OC(=O)Cc2ccccc2F)[C@H](C)[C@@H](O[C@@H]2O[C@H](C)C[C@H](N(C)Cc3ccccc3)[C@H]2O)[C@](C)(OC)C[C@@H](C)C(=O)[C@H](C)[C@@H](O)[C@]1(C)O
0.25 (≈ 0.34 µM) | C=CCN(C)[C@H]1C[C@@H](C)O[C@@H](O[C@@H]2[C@@H](C)[C@H](OC(=O)Cc3cccnc3)[C@@H](C)C(=O)O[C@H](CC)[C@@](C)(O)[C@H](O)[C@@H](C)C(=O)[C@H](C)C[C@@]2(C)OC)[C@@H]1O
16 (≈ 21.3 µM) | CC[C@H]1OC(=O)[C@H](C)[C@@H](OC(=O)Cc2ccccc2F)[C@H](C)[C@@H](O[C@@H]2O[C@H](C)C[C@H](N(C)C3CC3)[C@H]2O)[C@](C)(OC)C[C@@H](C)C(=O)[C@H](C)[C@@H](O)[C@]1(C)O
